Positions count from the first letter of the chain named. pEC50: −log10 of the molar value.
Key:
Experiment in all cases: cell-based
L882I-AR = molecular target: T1, L882I-AR (Homo sapiens, UniProt P10275, L882I)
T1 sequence (P10275 1-920 L882I): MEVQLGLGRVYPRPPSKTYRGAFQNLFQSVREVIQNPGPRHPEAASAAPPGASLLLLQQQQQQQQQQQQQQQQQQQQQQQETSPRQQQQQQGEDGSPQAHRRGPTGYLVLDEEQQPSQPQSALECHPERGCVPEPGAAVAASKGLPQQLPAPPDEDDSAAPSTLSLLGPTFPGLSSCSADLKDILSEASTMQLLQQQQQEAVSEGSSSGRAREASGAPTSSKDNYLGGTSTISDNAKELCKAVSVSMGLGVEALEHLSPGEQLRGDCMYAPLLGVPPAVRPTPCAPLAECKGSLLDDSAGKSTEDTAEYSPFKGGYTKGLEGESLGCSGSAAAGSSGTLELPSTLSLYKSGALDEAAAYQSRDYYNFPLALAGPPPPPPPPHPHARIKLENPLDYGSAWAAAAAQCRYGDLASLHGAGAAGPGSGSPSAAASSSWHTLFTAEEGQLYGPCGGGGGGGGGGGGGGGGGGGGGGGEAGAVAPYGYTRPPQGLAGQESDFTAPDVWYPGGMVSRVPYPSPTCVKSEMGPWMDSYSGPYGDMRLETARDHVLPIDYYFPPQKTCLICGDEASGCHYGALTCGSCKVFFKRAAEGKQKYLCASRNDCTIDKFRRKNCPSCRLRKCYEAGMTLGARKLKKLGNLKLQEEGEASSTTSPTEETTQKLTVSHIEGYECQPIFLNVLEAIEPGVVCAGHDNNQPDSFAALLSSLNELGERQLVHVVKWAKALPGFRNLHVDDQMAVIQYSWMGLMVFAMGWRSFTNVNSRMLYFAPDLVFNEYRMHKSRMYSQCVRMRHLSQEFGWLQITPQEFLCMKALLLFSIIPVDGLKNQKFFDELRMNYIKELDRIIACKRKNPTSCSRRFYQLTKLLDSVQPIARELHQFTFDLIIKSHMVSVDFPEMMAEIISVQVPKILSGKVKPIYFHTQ

M896T-AR = molecular target: T2, M896T-AR (Homo sapiens, UniProt P10275, M896T)
T2 sequence (P10275 1-920 M896T): T1 sequence (P10275 1-920 L882I) with I882L, M896T

E894K-AR = molecular target: T3, E894K-AR (Homo sapiens, UniProt P10275, E894K)
T3 sequence (P10275 1-920 E894K): T1 sequence (P10275 1-920 L882I) with I882L, E894K

Measured: pEC50

C[C@]12CCC(=O)C=C1CC[C@@H]1[C@@H]2[C@@H](O)C[C@@]2(C)[C@H]1CC[C@]2(O)C(=O)CO [hydrocortisone]
< 6.30: L882I-AR | M896T-AR | E894K-AR
